Measured values taken from patent publication US6380156B1, “Total synthesis of the amino hip analogue of didemnin A” (The Board of Trustees of the University of Illnois, priority 1996, dated 2002).
Numbered stars: 1 amine (or outer) side, 2 acyl side, 3 side chain; on linkers, the order of the positions; unused ones are H or OH. Bridge positions count the residues as written; N and C are the ends. Square brackets hold non-standard residues; d marks the D form. Peptide text beside a SMILES is read from it. * marks the point of attachment. X1 = CC[C@H](C)[C@@H](N[*:1])[C@@H](O)CC(=O)[*:2]; X2 = CC(C)[C@H](N[*:1])C(=O)[C@H](C)C(=O)[*:2]; NMeY = CN[C@@H](Cc1ccc(O)cc1)C(=O)O; dNMeL = CN[C@H](CC(C)C)C(=O)O; Cbz = O=C(OCc1ccccc1)*

What was measured:
[1] = molecular target: elongation factor 1α (EF-1α) (Homo sapiens, UniProt P68104); details: GTP-dependent; cited from earlier work
Chain of elongation factor 1α (EF-1α) (P68104 whole entry): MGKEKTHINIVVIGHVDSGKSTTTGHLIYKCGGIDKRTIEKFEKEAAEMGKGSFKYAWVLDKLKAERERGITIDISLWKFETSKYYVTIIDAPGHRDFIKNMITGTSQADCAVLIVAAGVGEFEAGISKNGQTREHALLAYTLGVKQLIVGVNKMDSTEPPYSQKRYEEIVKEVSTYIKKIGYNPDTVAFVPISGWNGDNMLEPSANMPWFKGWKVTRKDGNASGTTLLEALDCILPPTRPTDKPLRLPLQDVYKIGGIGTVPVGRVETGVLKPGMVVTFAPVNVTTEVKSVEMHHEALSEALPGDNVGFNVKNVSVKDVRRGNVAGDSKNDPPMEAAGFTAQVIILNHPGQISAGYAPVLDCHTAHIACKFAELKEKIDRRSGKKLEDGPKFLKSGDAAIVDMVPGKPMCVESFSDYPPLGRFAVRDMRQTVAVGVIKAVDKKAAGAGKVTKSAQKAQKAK

CV-1 = assay: Cytotoxicity in the HSV/CV-1 antiviral test; details: scale 0-least toxic to 16 (toxic)
DNA and RNA viruses = details: cited from earlier work
HSV = assay: Antiviral activity, HSV/CV-1; assay type: cell-based; parameters: key: +++ complete inhibition; ++ strong inhibition; + moderate inhibition; − no inhibition
Nb2 node lymphoma cells = details: cited from earlier work
[2] = in vitro; cited from earlier work

Molecule | binding to elongation factor 1α (EF-1α) [1] | HSV/CV-1 Cytotoxicity (CV-1; 10 ng/mL) | HSV/CV-1 Cytotoxicity (CV-1; 20 ng/mL) | HSV/CV-1 Cytotoxicity (CV-1; 50 ng/mL) | HSV/CV-1 Cytotoxicity (CV-1; 100 ng/mL) | antiviral activity against DNA and RNA viruses (DNA and RNA viruses) | HSV/CV-1 Activity (antiviral) (HSV; 10 ng/mL) | HSV/CV-1 Activity (antiviral) (HSV; 20 ng/mL) | HSV/CV-1 Activity (antiviral) (HSV; 50 ng/mL) | HSV/CV-1 Activity (antiviral) (HSV; 100 ng/mL) | binding to a site on Nb2 node lymphoma cells (Nb2 node lymphoma cells) | cytotoxicity relative to didemnin A [2]
Didemnin A [Didemnin A (1)] | binds elongation factor 1α (EF-1α) in a GTP-dependent manner | 0 | 0 | 0 | 0 | exhibit antiviral activity | − | + | + | + |  | 
Didemnin B |  |  |  |  |  | exhibit antiviral activity |  |  |  |  | binds to a site on Nb2 node lymphoma cells | approximately twenty times more cytotoxic than didemnin A
CC[C@H](C)[C@H]1NC(=O)[C@@H](NC(=O)[C@@H](CC(C)C)N(C)C(=O)OCc2ccccc2)[C@@H](C)OC(=O)[C@H](Cc2ccc(OC)cc2)N(C)C(=O)[C@@H]2CCCN2C(=O)[C@H](CC(C)C)NC(=O)[C@@H](C)C(=O)[C@H](C(C)C)NC(=O)C[C@@H]1O [Cbz-[Aip^3]-Didemnin A] (Cbz-[dNMeL]T[X1][X2]LP[NMeY](Me); ester 2-C) |  | 0 | 0 | 8 | 10 |  | − | + | + | + |  | 
